Columns and labels:
[1] = system: Wnt activity (Sp5-Luc reporter, TCF/LEF binding sites) in SW480 colon carcinoma cells; test: Sp5-Luc Wnt reporter gene screening assay in SW480 colon carcinoma cells; format: cell-based, human; conditions: Homo sapiens
From the text: The screening assay for Wnt activity is described as follows. Reporter cell lines can be generated by stably transducing cancer cell lines (e.g., colon cancer) or primary cells (e.g., IEC-6 intestinal cells) with a lentiviral construct that includes a Wnt-responsive promoter driving expression of the firefly luciferase gene.
SW480 colon carcinoma cells were transduced with a lentiviral vector expressing luciferase with a human Sp5 promoter consisting of a sequence of eight TCF/LEF binding sites. SW480 cells stably expressing the Sp5-Luc reporter gene and a hygromycin resistance gene were selected by treatment with 150 μg/ml of hygroinycin for 7 days. These stably transduced SW480 cells were expanded in cell culture and used for all further screening activities. For Sp5-Luc reporter gene assays, the cells were plated at 10,000 cells/well in 96-well plates with growth medium containing 10% fetal calf serum and incubated overnight at 37° C. and 5% CO2. Each compound was dissolved in DMSO as a 10 mM stock in standard j-vials and used to prepare compound source plates in dose-response format with 3-fold serial dilutions and a 10 mM top concentration. Compound transfer from serially diluted source plates to assay plates containing the cells was accomplished using a pintool (Multimek 96, Beckman equipped with V&P Scientific FP1S50H pins) based liquid handling protocol. This protocol used a slotted pin to transfer 50 nl of compound from a source plate well to an assay plate well containing 50 μl of cells in growth medium. […] Control wells received 50 nl of DMSO treatment for nommlization and calculating IC50 values. The treated cells were incubated at 37° C. and 5% CO2 for an additional forty-two hours. Following incubation, the growth medium was removed and 50 μl of BrightGlo luminescence reagent (Promega) was added to each well of the 96-well assay plates. The plates were placed on an orbital shaker for 5 min and then luminescence was quantified on the Victor3 (Perkin Elmer) plate reader. Readings were normalized to DMSO only treated cells, and normalized activities were utilized for IC50 calculations using the dose-response log (inhibitor) vs. response—variable slope (four parameters) nonlinear regression feature available in GraphPad Prism 5.0 or 6.0.

[2] = system: primary human fibroblasts derived from IPF patients (LL29 cells); test: Inhibition of the fibrotic process in TGF-β1-treated primary human fibroblasts from IPF patients (αSMA staining); format: cell-based; conditions: Fibroblast, 96 h, TGF-β1 20 ng/mL, 4 days, read-out: Inhibition of fibrosis EC50
From the text: The above synthesized compounds were screened using primary human fibroblasts (derived from IPF patients) treated with TGF-β1 to determine their ability to inhibit the fibrotic process.
Human Fibroblast Celt Culture: Primary human fibroblasts derived from IPF patients (LL29 cells) [^1Xiaoqiu Liu, et.al., “Fibrotic Luna Fibroblasts Show Blunted Inhibition by cAMP Due to Deficient cAMP Response Element-Binding Protein Phosphorylation”, Journal of Pharmacology and Experimental Therapeutics (2005), 315(2), 678-687; ^2Watts, K. L., et.al., “RhoA signaling modulates cyclin D1 expression in human lung fibroblasts; implications for idiopathic pulmonary fibrosis”, Respiratory Research (2006), 7(1), 88] were obtained from American Type Culture Collection (ATCC) and expanded in F12 medium supplemented with 15% Fetal Bovine Serum and Penicillin/Streptomycin.
Compound Screening: Each compound was dissolved in DMSO as a 10 mM stock and used to prepare compound source plates. Serial dilution (1:2, 11-point dose-response curves from 10 μM to […]) and compound transfer was performed using the ECHO 550 (Lahcyte, Sunnyvale, Calif.) into 384-well clear bottom assay plates (Greiner Bio-One) with appropriate DMSO backfill fhr a final DMSO concentration of 0.1%. LL29 cells were plated at 1,500 cells/well in 80 μl/well F12 medium supplemented with 1% Fetal Bovine Serum. One hour after addition of the cells. TGF-β1 (Peprotech; 20 ng/mL) was added to the plates to induce fibrosis (ref. 1 and 2 above), Wells treated with TGF-β1 and containing DMSO were used as controls. Cells were incubated at 37° C. and 5% CO2 for 4 days. Following incubation for 4 days, SYTOX green nucleic acid stain (Life Technologies [Thermo Fisher Scientific]) was added to the wells at a final concentration of 1 uM and incubated at room temperature for 30 min. Cells were then fixed using 4% formaldehyde (Electron Microscopy Sciences), washed 3 times with PBS followed by blocking and penneabilization using 3% Bovine Serum Albumin (BSA; Sigma) and 0.3% Triton X-100 (Sigma) in PBS. Cells were then stained with antibody specific to α-smooth muscle actin (αSMA; Abeam) (ref 1 and 2 above) in 3% Bovine Serum Albumin (BSA; Sigma) and 0.3% Triton X-100 (Sigma) in PBS, and incubated overnight at 4° C. Cells were then washed 3 times with PBS, followed by incubation with Alexa Flor-647 conjugated secondary antibody (Life Technologies [Thermo Fisher Scientific]) and DAPI at room temperature for 1 hour, Cells were then washed 3 times with PBS and plates were sealed for imaging. αSMA staining was imaged by excitation at 630 nm and emission at 665 nm and quantified using the Compartmental Analysis program on the CellInsight CX5 (Thermo Scientific). Dead or apoptotic cells were excluded from analysis based on positive SYTOX green staining. % of total cells positive for αSMA were counted in each well and normalized to the average of 11 wells treated with TGF-β1 on the same plate using Dotmatics' Studies Software. The normalized averages (fold change over untreated) of 3 replicate wells for each compound concentration were used to create dose-responses curves and EC50 values were calculated using non-linear regression curve fit in the Dotmatics' Studies Software. The EC50 values are reported.

| Compound | IC50 [1] [µM] | EC50 [2] [µM] |
| --- | --- | --- |
| O=C(Nc1cncc(-c2cc3c(-c4nc5c(-c6ccsc6)ccnc5[nH]4)n[nH]c3cn2)c1)c1ccccc1 [Compound 271, N-(5-(3-(7-(Thiophen-3-yl)-3H-imidazo[4,5-b]pyridin-2-yl)-1H-pyrazolo[3,4-c]pyridin-5-yl)pyridin-3-yl)benzarnide] | 0.0166 | 0.051 |
| CN(C)Cc1cncc(-c2cc3c(-c4nc5c(-c6cccs6)ccnc5[nH]4)n[nH]c3cn2)c1 [Compound 325, N,N-Dimethyl-1-(5-(3-(7-(thiophen-2-yl)-3H-imidazo[4,5-b]pyridin-2-yl)-1H-pyrazolo[3,4-c]pyridin-5-yl)pyridin-3-yl)methanamine] | 0.137 | 0.254 |
| CC(C)Nc1cncc(-c2cc3c(-c4nc5c(-c6cc(F)cc(NCCN(C)C)c6)ccnc5[nH]4)n[nH]c3cn2)c1 [Compound 454, N^1-(3-Fluoro-5-(2-(5-(5-(isopropylamino)pyridin-3-yl)-1H-pyrazolo[3,4-c]pyridin-3-yl)-3H-imidazo[4,5-b]pyridin-7-yl)phenyl)—N^2,N^2-dimethylethane-1,2-diamine] | 0.0947 | 0.746 |
| CC(C)(C)C(=O)Nc1cncc(-c2cc3c(-c4nc5c(-c6cccc(F)c6)ccnc5[nH]4)n[nH]c3cn2)c1 [Compound 8, N-(5-(3-(7-(3-Fluorophenyl)-3H-imidazo[4,5-b]pyridin-2-yl)-1H-pyrazolo[3,4-c]pyridin-5-yl)pyridin-3-yl)pivalamide] | 0.155 | 0.075 |
| c1cc(-c2ccoc2)c2nc(-c3n[nH]c4cnc(-c5cncc(CNCC6CCCC6)c5)cc34)[nH]c2n1 [Compound 310, 1-Cyclopentyl-N-((5-(3-(7-(furan-3-yl)-3H-imidazo[4,5-b]pyridin-2-yl)-1H-pyrazolo[3,4-c]pyridin-5-yl)pyridin-3-yl)methyl)methanamine] | 0.243 | 0.641 |
| O=C(Cc1ccccc1)Nc1cncc(-c2cc3c(-c4nc5cccnc5[nH]4)n[nH]c3cn2)c1 [Compound 244, N-(5-(3-(3H-Imidazo[4,5-b]pyridin-2-yl)-1H-pyrazolo[3,4-c]pyridin-5-yl)pyridin-3-yl)-2-phenylacetamide] | > 10 | 0.992 |
| CC(C)(C)C(=O)Nc1cncc(-c2cc3c(-c4nc5c(-c6cccs6)ccnc5[nH]4)n[nH]c3cn2)c1 [Compound 320] | 0.0426 | 0.025 |
| c1ccc(-c2ccnc3[nH]c(-c4n[nH]c5cnc(-c6cncc(CNCC7CCCC7)c6)cc45)nc23)nc1 [Compound 154, 1-Cyclopentyl-N-((5-(3-(7-(pyridin-2-yl)-3H-imidazo[4,5-b]pyridin-2-yl)-1H-pyrazolo[3,4-c]pyridin-5-yl)pyridin-3-yl)methyl)methanamine] | 0.464 | 0.596 |
| COc1cc(F)cc(-c2ccnc3[nH]c(-c4n[nH]c5cnc(-c6cncc(NC(=O)CC(C)C)c6)cc45)nc23)c1 [Compound 1394, N-(5-(3-(7-(3-Fluoro-5-methoxyphenyl)-3H-imidazo[4,5-b]pyridin-2-yl)-1H-pyrazolo[3,4-c]pyridin-5-yl)pyridin-3-yl)-3-methyl butanamide] | > 10 | 0.495 |
| CCCCC(=O)Nc1cncc(-c2cc3c(-c4nc5c(-c6ccoc6)ccnc5[nH]4)n[nH]c3cn2)c1 [Compound 304, N-(5-(3-(7-(Furan-3-yl)-3H-imidazo[4,5-b]pyridin-2-yl)-1H-pyrazolo [3,4c]pyridin-5-yl)pyridin-3-yl)pentanamide] | 0.0607 | 3.65 |
| Cc1ccncc1-c1cc2c(-c3nc4c(-c5ccsc5)ccnc4[nH]3)n[nH]c2cn1 [Compound 265, 5-(4-Methylpyridin-3-yl)-3-(7-(thiophen-3-yl)-3H-imidazo[4,5-b]pyridin-2-yl)-1H-pyrazolo[3,4-c]pyridine] | 0.0261 | 0.034 |
| COc1cncc(-c2cc3c(-c4nc5c(-c6cccc(F)c6)ccnc5[nH]4)n[nH]c3cn2)c1 [Compound 948, 3-(7-(3-Fluorophenyl)-3H-imidazo[4,5-b]pyridin-2-yl)-5-(5-methoxypyridin-3-yl)-1H-pyrazolo[3,4-c]pyridine] | 0.85 | 0.632 |
| Fc1cccc(-c2ccnc3[nH]c(-c4n[nH]c5cnc(-c6cn[nH]c6)cc45)nc23)c1 [Compound 939, 3-(7-(3-Fluorophenyl)-3H-imidazo[4,5-b]pyridin-2-yl)-5-(1H-pyrazol-4-yl)-1H-pyrazolo[3,4-c]pyridine] | 0.198 | 0.014 |
| Cc1ccc(-c2ccnc3[nH]c(-c4n[nH]c5cnc(-c6cncc(NC(C)C)c6)cc45)nc23)s1 [Compound 376, N-Isopropyl-5-(3-(7-(5-methylthiophen-2-yl)-3H-imidazo[4,5-b]pyridin-2-yl)-1H-pyrazolo[3,4-c]pyridin-5-yl)pyridin-3-amine] | 0.0106 | ≥ 9.99 |
| CCCC(=O)Nc1cncc(-c2cc3c(-c4nc5c(-c6ccccc6F)ccnc5[nH]4)n[nH]c3cn2)c1 [Compound 69, N-(5-(3-(7-(2-Fluorophenyl)-3H-imidazo[4,5-b]pyridin-2-yl)-1H-pyrazolo[3,4-c]pyridin-5-yl)pyridin-3-yl)butyramide] | 0.128 | 0.21 |
| CC(C)(C)C(=O)Nc1cncc(-c2cc3c(-c4nc5c(-c6ccccc6F)ccnc5[nH]4)n[nH]c3cn2)c1 [Compound 60] | 0.0455 | ≤ 0.009 |
| CN(C)c1cncc(-c2cc3c(-c4nc5c(-c6cccc(F)c6)ccnc5[nH]4)n[nH]c3cn2)c1 [Compound 7, 5-(3-(7-(3-Fluorophenyl)-3H-imidazo[4,5-b]pyridin-2-yl)-1H-pyrazolo[3,4-c]pyridin-5-yl)-N,N-dimethylpyridin-3-amine] | 0.0854 | 0.406 |
| O=C(Nc1cncc(-c2cc3c(-c4nc5c(-c6cccs6)ccnc5[nH]4)n[nH]c3cn2)c1)C1CC1 [Compound 331] | 0.0831 | 0.319 |
| CC(C)Nc1cncc(-c2cc3c(-c4nc5c(-c6cccs6)ccnc5[nH]4)n[nH]c3cn2)c1 [Compound 324, N-Isopropyl-5-(3-(7-(thiophen-2-yl)-3H-imidazo[4,5-b]pyridin-2-yl)-1H-pyrazolo[3,4-c]pyridin-5-yl)pyridin-3-amine] | 0.0585 | ≥ 9.99 |
| Cc1ccc(-c2ccnc3[nH]c(-c4n[nH]c5cnc(-c6cncc(N)c6)cc45)nc23)s1 [Compound 367, 5-(3-(7-(5-Methylthiophen-2-yl)-3H-imidazo[4,5-b]pyridin-2-yl)-1H-pyrazolo[3,4-c]pyridin-5-yl)pyridin-3-amine] | 0.0226 | ≤ 0.009 |
